Where “and” joins values, the source holds several entries; their conditions need not be identical. Equal entries are not always repeated.
Experiments:
[1] = system: Salmonella Typhimurium TA1537; experiment: bacterial mutagenicity, strain TA1537; format: cell-based; design: key: +: Positive Response; -: Negative Response; w+: Weak Positive Response
Method: (§1) The tests were carried out as follows:
(§2) Four phenylpiperazine derivatives were selected and specially purified samples were prepared for testing as bacterial mutagens. The tests were conducted with five strains (TA98, TA100, TA1535, TA1537, and TA1538) of Salmonella Typhimurium. The compounds were the base of cpd. A (Table 6a), cpd. 28 (Table 2), cpd. 49 (Table 3), and cpd. 8 (Table 1). Hycanthone was used as a positive control drug. In the initial test, cpd. A base was nonmutagenic, confirming previous work using strains TA98 and TA100 with cpd. A. Cpd. 28 and cpd. […] In this initial test, cpd. […] Therefore, it was concluded that cpd. 49 is nonmutagenic in the Ames/Salmonella assay.

[2] = system: Salmonella Typhimurium TA1535; experiment: bacterial mutagenicity, strain TA1535; format: cell-based; design: key: +: Positive Response; -: Negative Response; w+: Weak Positive Response; conditions: without metabolic activation
Method: as §1, §2

[3] = system: Salmonella Typhimurium TA100; experiment: bacterial mutagenicity, strain TA100; format: cell-based; design: key: +: Positive Response; -: Negative Response; w+: Weak Positive Response
Method: as §1, §2

[4] = system: Salmonella Typhimurium TA1538; experiment: bacterial mutagenicity, strain TA1538; format: cell-based; design: key: +: Positive Response; -: Negative Response; w+: Weak Positive Response
Method: as §1, §2

[5] = system: Salmonella Typhimurium TA98; experiment: bacterial mutagenicity, strain TA98; format: cell-based; design: key to Mutagenicity TA98: +: Positive Response; -: Negative Response; w+: Weak Positive Response
Method: as §1, §2

Salmonella Typhimurium = experiment: bacterial mutagenicity (Ames/Salmonella), five strains together; format: cell-based; conditions: for bacterial mutagenicity: initial test
Method: as §1
Four phenylpiperazine derivatives were selected and specially purified samples were prepared for testing as bacterial mutagens. The tests were conducted with five strains (TA98, TA100, TA1535, TA1537, and TA1538) of Salmonella Typhimurium. The compounds were the base of cpd. A (Table 6a), cpd. 28 (Table 2), cpd. 49 (Table 3), and cpd. 8 (Table 1). Hycanthone was used as a positive control drug.

S. mansoni [6] = experiment: antischistosomal activity in mice (live worm burden, single oral dose); format: in vivo, S. mansoni (host: CD1 white female mice); conditions: Schistosoma mansoni, single oral dose, read-out: % Reduction Live Worm Burden; for inhibition in vivo at 40 mg/kg / inhibition in vivo at 20 mg/kg / inhibition in vivo at 125 mg/kg: mice; for inhibition in vivo at 50 mg/kg: mice (footnote, 40 mg/kg)
Method: Tests were conducted to determine the antischistosomal activity in mice and monkeys. The results of the mice tests are reported in Tables 1 to 4 along with the chemical identifications of the compounds synthesized and tested.
The mice tests were conducted as follows:
A. Preinfection Procedures: Purina Laboratory chow (Ralston-Purina) and water were given ad libitum. All mice were housed in hanging stainless steel cages, without bedding, five per cage. They were kept in a ward with an ambient temperature of 75° F. and a relative humidity of 50-55%. Therapeutic treatment was given on Day 40 post-infection.
B. Experimental Procedures: CD1 white female mice were exposed by the tail immersion method for 30 minutes to 80 individually counted S. mansoni cercariae (WRAIR laboratory strain). The cercariae were obtained from pools of no less than 25 Biophalaria glabrata snails. Each experiment consisted of 118 mice divided into infected/water treated and infected/vehicle-treated controls, and infected/drug-treated groups (two dose levels) for six compounds. Groups of 12 mice each were treated with a compound synthesized and provided by the Warner-Lambert Company, Ann Arbor, Mich. at two dose levels. At the same time, five mice were sacrificed to establish worm burdens as infection controls. Three weeks after treatment, all remaining mice were sacrificed and perfused. Gross pathology (liver and intestines) was noted and graded (0 to +3). Worm burdens were determined and the sex of the worms recorded. Following perfusions the liver and intestines were removed and examined for the presence of […] or dead worms. […] Drugs were administered orally in Emulphor EL.
C. Drug Treatment: Treatment consisted of a single oral dose. Each drug was give initially at two dose levels, 40 mg/kg and 125 mg/kg, SID×1.
D. Criteria Used to Evaluate Therapeutic Effectiveness:
Evaluation of activity was determined by examination of the animals at 23 to 28 days after treatment. The schistosomes remaining alive after treatment were counted in the perfusates of the hepatic portal system and in press preparation of the livers. In the same preparations, the relative numbers of dead and/or encapsulated (i.e., worms may or may not be dead) parasites and the relative degree of pathology were ascertained. The efficacy of each treatment was that percentage of the control infection represented by the difference between numbers of parasites recovered from control (H2 O+vehicle) and treated animals. Thus, % efficacy is: [formula]

S. mansoni [7] = experiment: antischistosomal activity in Cebus apella monkeys treated orally; format: in vivo, S. mansoni (host: Cebus apella monkeys); conditions: four equal doses over two days, oral; for Total Normal Worms at Necropsy: two values given, not assigned to the doses
[8] = mice (footnote, 125 mg/kg column)

Compound: CCN(CC)CCNc1ccc(CO)c2sc3ccccc3c(=O)c12 [Hycanthone, reference compound]
- Mutagenicity TA1537 ([1]; with metabolic activation): +
- Mutagenicity TA1537 ([1]; without metabolic activation): +
- Mutagenicity TA1535 [2]: -
- Mutagenicity TA100 ([3]; with metabolic activation): +
- Mutagenicity TA100 ([3]; without metabolic activation): +
- Mutagenicity TA1538 ([4]; with metabolic activation): +
- Mutagenicity TA1538 ([4]; without metabolic activation): +
- Mutagenicity TA98 ([5]; with metabolic activation): +
- Mutagenicity TA98 ([5]; without metabolic activation): +

Compound: O=C(CN1CCN(c2ccc(CO)c(Cl)c2)CC1)c1ccc(Cl)c(Cl)c1Cl [Cpd. 8, 2-[4-[3-Chloro-4-(hydroxymethyl)phenyl]-1-piperazinyl]-1-(2,3,4-trichlorophenyl)ethanone]
- Mutagenicity TA1537 ([1]; with metabolic activation): w+
- Mutagenicity TA1537 ([1]; without metabolic activation): -
- Mutagenicity TA1535 [2]: -
- Mutagenicity TA100 ([3]; with metabolic activation): +
- bacterial mutagenicity (Salmonella Typhimurium; five strains): mutagenic, but much less so than hycanthone
- inhibition in vivo at 40 mg/kg (S. mansoni [6]): 84%
- inhibition in vivo at 50 mg/kg (S. mansoni [6]): 91%
- inhibition in vivo at 156 mg/kg (S. mansoni [6]; [8]): 96%
- Mutagenicity TA1538 ([4]; with metabolic activation): -
- Mutagenicity TA1538 ([4]; without metabolic activation): -
- Mutagenicity TA98 ([5]; with metabolic activation): -
- Mutagenicity TA98 ([5]; without metabolic activation): -

Compound: O=C(CCN1CCN(c2ccc(CO)c(Cl)c2)CC1)c1ccc(Cl)cc1 [Cpd. 28, 3-[4-[3-Chloro-4-(hydroxymethyl)phenyl]-1-piperazinyl]-1-(4-chlorophenyl)-1-propanone]
- Mutagenicity TA1537 ([1]; with metabolic activation): -
- Mutagenicity TA1537 ([1]; without metabolic activation): w+
- Mutagenicity TA1535 [2]: -
- Mutagenicity TA100 ([3]; with metabolic activation): +
- bacterial mutagenicity (Salmonella Typhimurium; five strains): mutagenic, but much less so than hycanthone
- inhibition in vivo at 20 mg/kg (S. mansoni [6]): 66%
- inhibition in vivo at 40 mg/kg (S. mansoni [6]): 88%
- inhibition in vivo at 50 mg/kg (S. mansoni [6]): 98%
- inhibition in vivo at 156 mg/kg (S. mansoni [6]; [8]): 99%
- Mutagenicity TA1538 ([4]; with metabolic activation): +
- Mutagenicity TA1538 ([4]; without metabolic activation): w+
- Mutagenicity TA98 ([5]; with metabolic activation): -
- Mutagenicity TA98 ([5]; without metabolic activation): -

Compound: O=C(CN1CCN(c2ccc(CO)c(Cl)c2)CC1)c1cc2ccccc2o1 [Cpd. 49, 2-[4-[3-Chloro-4-(hydroxymethyl)phenyl]-1-piperazinyl]-1-(2-benzofuranyl)-ethanone]
- Mutagenicity TA1537 ([1]; with metabolic activation): -
- Mutagenicity TA1537 ([1]; without metabolic activation): -
- Mutagenicity TA1535 [2]: -
- Mutagenicity TA100 ([3]; with metabolic activation): -
- bacterial mutagenicity, conclusion (Salmonella Typhimurium; Ames/Salmonella assay, overall conclusion): nonmutagenic
- bacterial mutagenicity (Salmonella Typhimurium; other four strains (not TA98)): nonmutagenic
- inhibition in vivo at 20 mg/kg (S. mansoni [6]): 33%
- inhibition in vivo at 125 mg/kg (S. mansoni [6]): 97%
- Mutagenicity TA1538 ([4]; with metabolic activation): -
- Mutagenicity TA1538 ([4]; without metabolic activation): -
- bacterial mutagenicity ([5]; initial test, TA98 with microsomal activation): weakly mutagenic
- bacterial mutagenicity ([5]; second test, TA98, microsomal activation, additional concentrations 10-60 micrograms/ml): did not confirm this mutagenicity
- Mutagenicity TA98 ([5]; with metabolic activation): +
- Mutagenicity TA98 ([5]; without metabolic activation): -

Compound: O=C(CN1CCN(c2ccc(CO)c(Cl)c2)CC1)c1ccc(Cl)c(Cl)c1Cl [drawing 33]
- % Reduction Live Worm Burden at Necropsy (S. mansoni [7]; 200 mg/kg): 85% and 83%
- Fecal Egg Count (S. mansoni [7]; 200 mg/kg): 0
- % Reduction Live Worm Burden at Necropsy (S. mansoni [7]; 400 mg/kg): 99% and 98%
- Fecal Egg Count (S. mansoni [7]; 400 mg/kg): 0
- Total Normal Worms at Necropsy (S. mansoni [7]): 0

Compound: COc1cc(C(=O)CN2CCN(c3ccc(CO)c(Cl)c3)CC2)cc(OC)c1OC [compound 10]
- inhibition in vivo at 40 mg/kg (S. mansoni [6]): -23%
- inhibition in vivo at 160 mg/kg (S. mansoni [6]; 160 mg/kg, mice (footnote, 125 mg/kg column)): 13%

Compound: O=C(CN1CCN(c2ccc(CO)c(Cl)c2)CC1)c1ccc([N+](=O)[O-])cc1 [Cpd. 5]
- inhibition in vivo at 40 mg/kg (S. mansoni [6]): 74%
- inhibition in vivo at 125 mg/kg (S. mansoni [6]): 98%

Compound: N#Cc1ccc(C(=O)CN2CCN(c3ccc(CO)c(Cl)c3)CC2)cc1 [compound 23]
- inhibition in vivo at 40 mg/kg (S. mansoni [6]): 40%
- inhibition in vivo at 125 mg/kg (S. mansoni [6]): 90%

Compound: O=C(CN1CCN(c2ccc(CO)c(Cl)c2)CC1)c1ccc(Br)s1 [compound 47]
- inhibition in vivo at 40 mg/kg (S. mansoni [6]): 35%
- inhibition in vivo at 125 mg/kg (S. mansoni [6]): 93%

Compound: O=C(CCN1CCN(c2ccc(CO)c(Cl)c2)CC1)c1ccc(Cl)cc1 [drawing 32]
- % Reduction Live Worm Burden at Necropsy (S. mansoni [7]; 100 mg/kg): 93% and 87%
- Total Live Worms at Necropsy (S. mansoni [7]; 100 mg/kg): 15 and 27
- % Reduction Live Worm Burden at Necropsy (S. mansoni [7]; 200 mg/kg): 100% and 96%
- % Reduction Live Worm Burden at Necropsy (S. mansoni [7]; 400 mg/kg): 97% and 95%
- Total Live Worms at Necropsy (S. mansoni [7]; 400 mg/kg): 6 and 11
- Total Normal Worms at Necropsy (S. mansoni [7]): 0
- Fecal Egg Count (S. mansoni [7]; two values printed for six animals (400, 200, 100 mg/kg), not assigned): 0

Compound: Cc1cc(C)c(C(=O)CN2CCN(c3ccc(CO)c(Cl)c3)CC2)c(C)c1 [compound 21]
- inhibition in vivo at 40 mg/kg (S. mansoni [6]): 27%
- inhibition in vivo at 125 mg/kg (S. mansoni [6]): 78%

Compound: Nc1cc(C(=O)CN2CCN(c3ccc(CO)c(Cl)c3)CC2)ccc1Cl [compound 26]
- inhibition in vivo at 40 mg/kg (S. mansoni [6]): -12%
- inhibition in vivo at 125 mg/kg (S. mansoni [6]): 45%

Compound: O=C(CN1CCN(c2ccc(CO)c(Cl)c2)CC1)c1ccco1 [compound 46]
- inhibition in vivo at 50 mg/kg (S. mansoni [6]): 31%
- inhibition in vivo at 156 mg/kg (S. mansoni [6]; [8]): 83%

Compound: O=C(CN1CCN(c2ccc(CO)c(Cl)c2)CC1)c1ccc(F)cc1 [Cpd. 2]
- inhibition in vivo at 40 mg/kg (S. mansoni [6]): 19%
- inhibition in vivo at 125 mg/kg (S. mansoni [6]): 61%

Compound: O=C(CCN1CCN(c2ccc(CO)c(Cl)c2)CC1)c1ccc(Cl)c([N+](=O)[O-])c1 [Cpd. 35]
- inhibition in vivo at 40 mg/kg (S. mansoni [6]): 79%
- inhibition in vivo at 125 mg/kg (S. mansoni [6]): 98%

Compound: O=C(CN1CCN(c2ccc(CO)c(Cl)c2)CC1)c1ccc(I)cc1 [Cpd. 6]
- inhibition in vivo at 40 mg/kg (S. mansoni [6]): 62%
- inhibition in vivo at 125 mg/kg (S. mansoni [6]): 83%

Compound: O=C(CN1CCN(c2ccc(CO)c(Cl)c2)CC1)c1ccc(I)s1 [compound 48]
- inhibition in vivo at 40 mg/kg (S. mansoni [6]): -20%
- inhibition in vivo at 125 mg/kg (S. mansoni [6]): 30%
